Experiments:
Format in all cases: in vivo
Parameters in all cases: scale not given here
[1] = system: Scirpus juncoides Roxb. var. ohwianus. T. Koyama; experiment: Herbicidal effects in paddy field soil treatment (Test Example 1); conditions: for Herbicidal effects index, Scirpus juncoides Roxb. var. ohwianus. T. Koyama: paddy field soil treatment, 1000 g of the active ingredient per hectare, wettable powder added dropwise on water surface, 21st day after treatment
Method in brief: (§1)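 Weed seeds were sown into puddled, leveled paddy soil in pots and flooded to 3 cm water depth. One day later the diluted wettable powder formulation was dropped onto the water surface at 1000 g active ingredient per hectare. Herbicidal effect was scored on day 21 after greenhouse growth.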

[2] = system: Monochoria vaginalis (Burm. f.) Presl var. plantaginea (Roxb.) Solms-Laub.; experiment: as above; conditions: for Herbicidal effects index, Monochoria vaginalis (Burm. f.) Presl var. plantaginea (Roxb.) Solms-Laub.: paddy field soil treatment, 1000 g of the active ingredient per hectare, wettable powder added dropwise on water surface, 21st day after treatment
Method in brief: as §1

[3] = system: Echinochloa oryzicola Vasing; experiment: as above; conditions: for Herbicidal effects index, Echinochloa oryzicola Vasing: paddy field soil treatment, 1000 g of the active ingredient per hectare, wettable powder added dropwise on water surface, 21st day after treatment
Method in brief: as §1

[4] = system: Amaranthus viridis L.; experiment: Herbicidal effects in upland field foliar treatment (Test Example 3); conditions: criteria of Table 138; for herbicidal effects on Amaranthus viridis L.: 1000 g of the active ingredient per hectare, 14th day after the treatment, wettable powder; for herbicidal effect (index) on Amaranthus viridis L.: 1000 g active ingredient per hectare, 14th day after treatment
Method in brief: (§2)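 Weeds were sown in upland field soil and grown two weeks in a greenhouse before a foliar spray over the whole plant. Wettable powder was diluted in water and applied at 1000 L/ha, delivering 1000 g active ingredient/ha. Herbicidal effect was scored against set rating criteria 14 days after treatment.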

[5] = system: Abutilon theophrasti medicus; experiment: as above; conditions: criteria of Table 138; for herbicidal effects on Abutilon theophrasti medicus: 1000 g of the active ingredient per hectare, 14th day after the treatment, wettable powder; for herbicidal effect (index) on Abutilon theophrasti medicus: 1000 g active ingredient per hectare, 14th day after treatment
Method in brief: as §2

[6] = system: Echinochloa crus-galli (L.) P. Beauv. var. crus-galli; experiment: as above; conditions: criteria of Table 138; for herbicidal effects on Echinochloa crus-galli (L.) P. Beauv. var. crus-galli: 1000 g of the active ingredient per hectare, 14th day after the treatment, wettable powder; for herbicidal effect (index) on Echinochloa crus-galli (L.) P. Beauv. var. crus-galli: 1000 g active ingredient per hectare, 14th day after treatment
Method in brief: as §2

[7] = system: Amaranthus viridis L.; experiment: Herbicidal effects in upland field soil treatment (Test Example 2); conditions: 1000 g active ingredient per hectare, 21st day after treatment, criteria of Table 138
Method in brief: (§3)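 Pre-emergence soil application: seeds sown in upland field soil, covered, then wettable powder diluted in water sprayed on the soil surface at 1000 g active ingredient/ha in 1000 L/ha. Plants grown in greenhouse; herbicidal effect scored on a rating scale 21 days after treatment.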

[8] = system: Abutilon theophrasti medicus; experiment: as above; conditions: 1000 g active ingredient per hectare, 21st day after treatment, criteria of Table 138
Method in brief: as §3

[9] = paddy field soil treatment (Test Example 1), criteria of Table 138

Row | Compound | Herbicidal effects index, Scirpus juncoides Roxb. var. ohwianus. T. Koyama [1] | Herbicidal effects index, Monochoria vaginalis (Burm. f.) Presl var. plantaginea (Roxb.) Solms-Laub. [2] | Herbicidal effects index, Echinochloa oryzicola Vasing [3] | herbicidal effects on Amaranthus viridis L. [4] | herbicidal effects on Abutilon theophrasti medicus [5] | herbicidal effects on Echinochloa crus-galli (L.) P. Beauv. var. crus-galli [6] | herbicidal effect (index) on Amaranthus viridis L. [7] | herbicidal effect (index) on Abutilon theophrasti medicus [8] | herbicidal effect (index) on Amaranthus viridis L. [4] | herbicidal effect (index) on Abutilon theophrasti medicus [5] | herbicidal effect (index) on Echinochloa crus-galli (L.) P. Beauv. var. crus-galli [6] | herbicidal effect (index) on Scirpus juncoides Roxb. var. ohwianus. T. Koyama [1, 9] | herbicidal effect (index) on Monochoria vaginalis (Burm. f.) Presl var. plantaginea (Roxb.) Solms-Laub. [2, 9] | herbicidal effect (index) on Echinochloa oryzicola Vasing [3, 9]
1 | COc1cc(-n2c(=O)c(C(=O)C3=C(O)CCCC3=O)nc3ccccc32)ccc1Cl [II-167] | 5 | 5 | 5 | 5 | 5 | 5 | 5 | 5 |  |  |  |  |  | 
2 | COc1ccccc1Cn1c(=O)c(C(=O)C2=C(O)CCCC2=O)nc2cccnc21 [III-120] | 5 | 5 | 5 | 5 | 5 | 5 | 5 | 4 |  |  |  |  |  | 
3 | COc1c(Cl)cc(-n2c(=O)c(C(=O)C3=C(O)CCCC3=O)nc3ccccc32)cc1Cl [II-221] | 5 | 5 | 4 | 5 | 5 | 5 | 5 | 4 |  |  |  |  |  | 
4 | COc1ccc(-n2c(=O)c(C(=O)C3=C(O)CC(C)(C)CC3=O)nc3ccccc32)cc1 [II-64] | 4 | 5 | 5 | 5 | 5 | 5 | 5 | 4 |  |  |  |  |  | 
5 | O=C1CCCC(O)=C1C(=O)c1nc2ccccc2n(CC2CCCO2)c1=O (stereo not drawn) [I-211] | 5 | 5 | 4 |  |  |  | 5 | 5 | 5 | 5 | 5 |  |  | 
6 | O=C1CCCC(O)=C1C(=O)c1nc2ccccc2n(COCC2CCCO2)c1=O (stereo not drawn) [I-65] | 5 | 5 | 4 |  |  |  | 5 | 5 | 5 | 5 | 4 |  |  | 
7 | Cn1c(=O)c(C(=O)C2=C(O)CCCC2=O)nc2ccc(Cl)cc21 [I-227] | 5 | 5 | 5 |  |  |  | 5 | 5 | 5 | 5 | 4 |  |  | 
8 | CCCCn1c(=O)c(C(=O)C2=C(O)CCCC2=O)nc2c(Cl)cccc21 [I-364] | 5 | 5 | 4 |  |  |  | 5 | 5 | 5 | 5 | 5 |  |  | 
9 | CC1(C)CCC(=O)C(C(=O)c2nc3ccccc3n(-c3ccc4c(c3)OCCO4)c2=O)=C1O [II-227] | 5 | 5 | 5 | 5 | 4 | 5 | 5 | 5 |  |  |  |  |  | 
10 | O=C1CCCC(O)=C1C(=O)c1nc2cccnc2n(-c2cccc(Cl)c2)c1=O [IV-11] | 5 | 5 | 5 | 5 | 5 | 5 | 5 | 5 |  |  |  |  |  | 
11 | Cc1ccnc(-n2c(=O)c(C(=O)C3=C(O)CCCC3=O)nc3ccccc32)c1 [I-182] | 5 | 5 | 5 |  |  |  | 5 | 5 | 5 | 5 | 5 |  |  | 
12 | O=C1CCCC(O)=C1C(=O)c1nc2ccccc2n(-c2ccc3c(c2)CCC3)c1=O [II-222] | 5 | 5 | 5 | 5 | 5 | 5 | 5 | 5 |  |  |  |  |  | 
13 | O=C1CCCC(O)=C1C(=O)c1nc2cccnc2n(-c2ccccc2OC(F)(F)F)c1=O [IV-100] |  |  |  | 5 | 5 | 5 | 5 | 5 |  |  |  | 5 | 5 | 5
14 | O=C1CCCC(O)=C1C(=O)c1nc2ccccc2n(-c2ccc3c(c2)OC(F)(F)O3)c1=O [I-207] | 5 | 5 | 4 |  |  |  | 5 | 5 | 5 | 5 | 5 |  |  | 
15 | COCCOCn1c(=O)c(C(=O)C2=C(O)CCCC2=O)nc2ccccc21 [I-58] | 5 | 5 | 5 |  |  |  | 5 | 5 | 5 | 5 | 5 |  |  | 

From patent US8389523B2, “Substituted quinoxaline and an agrochemical composition thereof” (Kumiai Chemical Industry Co., Ltd., priority 2007, dated 2013)
